The values below come from patent US7951805B2, “Heterocyclic derivatives and their use as mediators of stearoyl-CoA desaturase” (Xenon Pharmaceuticals Inc., priority 2004, dated 2011).

A word on the melting point: it is the temperature of the solid-liquid transition. On to `O=C(NCCCC1CC1)c1ccc(N2CCC(N3C(=O)C(F)(F)c4ccccc43)CC2)nn1`, for which the melting point lay within 51 to 53 °C. Compound `Cl.O=C(NCCCC1CC1)c1ccc(N2CCC(Nc3ccccc3C(F)(F)F)CC2)nn1` showed a melting point of 117 to 121 °C.

On to `Cl.O=C(NCCCC1CC1)c1ccc(N2CCC(Nc3ccc(F)cc3C(F)(F)F)CC2)nn1`, for which the melting point was 143 to 147 °C. To `CCCCCNC(=O)c1ccc(N2CCC(Nc3ccc(F)cc3C(F)(F)F)CC2)nn1.Cl` belongs 136 to 139 °C; to `Cl.O=C(NCCC1CC1)c1ccc(N2CCC(Nc3ccccc3C(F)(F)F)CC2)nn1`, 158 to 163 °C. To `Cl.O=C(NCCC1CC1)c1ccc(N2CCC(Nc3ccc(F)cc3C(F)(F)F)CC2)nn1` belongs 134 to 137 °C.
